{
  "source": "patent US5889029A",
  "about": "“Use of cotinine in treating psychiatric disorders” (priority 1997, dated 1999)",
  "key": {"[1]": {"target": "T1, Serotonin (5HT1A) (Bos taurus, UniProt F6Q2H9)", "T1 construct": "Bovine hippocampal membranes; from tissue; host or cells: bovine hippocampal membranes", "T1 sequence (F6Q2H9 1-422)": "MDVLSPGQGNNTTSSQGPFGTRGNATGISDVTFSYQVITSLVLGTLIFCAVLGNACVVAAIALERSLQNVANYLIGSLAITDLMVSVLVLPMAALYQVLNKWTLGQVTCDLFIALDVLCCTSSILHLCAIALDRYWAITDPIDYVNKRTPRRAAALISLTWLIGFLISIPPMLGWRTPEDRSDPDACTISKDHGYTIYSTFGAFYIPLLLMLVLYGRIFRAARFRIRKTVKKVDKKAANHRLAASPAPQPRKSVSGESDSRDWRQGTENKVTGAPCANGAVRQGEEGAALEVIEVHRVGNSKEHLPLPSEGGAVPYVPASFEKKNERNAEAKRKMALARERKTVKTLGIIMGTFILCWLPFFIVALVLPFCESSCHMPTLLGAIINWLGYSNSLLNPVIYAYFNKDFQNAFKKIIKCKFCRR", "test": "Serotonin (5HT1A) Binding Assay", "set-up": "species or system Bovine", "details": "Bovine hippocampal membranes, [3H]-8-OH-DPAT 1.0 nM, read-out: Receptor Binding Activity Percent Inhibition Average (N = 2)"}, "[2]": {"target": "Glycine (Strychnine Insensitive) (Rattus norvegicus, UniProt P35439)", "test": "biochemical", "assay_type": "binding", "details": "read-out: Receptor Binding Activity Percent Inhibition Average (N = 2)"}, "[3]": {"target": "T2, Human recombinant M1 clone (Homo sapiens, UniProt P11229)", "T2 construct": "expressed in transfected cells", "T2 sequence (P11229 1-460)": "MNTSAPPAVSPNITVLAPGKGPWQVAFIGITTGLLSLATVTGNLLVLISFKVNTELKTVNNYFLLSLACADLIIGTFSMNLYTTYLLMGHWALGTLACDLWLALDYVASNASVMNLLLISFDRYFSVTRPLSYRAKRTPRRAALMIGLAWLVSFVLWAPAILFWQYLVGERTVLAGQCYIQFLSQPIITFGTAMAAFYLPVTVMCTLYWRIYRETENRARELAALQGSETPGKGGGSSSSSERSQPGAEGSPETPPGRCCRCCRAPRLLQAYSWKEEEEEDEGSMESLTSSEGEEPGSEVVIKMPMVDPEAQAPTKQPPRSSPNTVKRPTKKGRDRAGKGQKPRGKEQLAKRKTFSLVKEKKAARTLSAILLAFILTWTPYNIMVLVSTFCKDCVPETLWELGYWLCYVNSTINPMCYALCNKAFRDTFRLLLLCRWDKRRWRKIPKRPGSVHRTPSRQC", "test": "biochemical", "assay_type": "binding"}, "[4]": {"tested_on": "Glutamic Acid Decarboxylase (GAD)", "test": "Glutamic Acid Decarboxylase (GAD) Enzyme Assay", "assay_type": "biochemical", "details": "10^-8 M; Rat corpus striatal membranes; [14C]L-Glutamic acid", "experimental": "Radioimmunoassay studies were conducted with rat corpus striatal membranes using the following method.\nGlutamic Acid Decarboxylase (GAD) Enzyme Assay\nRat corpus striatal membranes\nSubstrate: [^14 C]L-Glutamic acid (30-80 Ci/mmol)\nReactions are incubated in phosphate/mercapoethanol buffer\n6.9) for 30 minutes at 37° C. The reaction is\nstopped by the addition\nof trichloroacetic acid and placement on ice. Radioactive\ntrapped in phenylethylamine/methanol and quantitated using\nscintillation […] in order to ascertain any\nof test compounds with the glutamic acid decarboxylase"}, "[5]": {"details": "humans, cited from earlier work"}, "[6]": {"details": "read-out: Receptor Binding Activity Percent Inhibition Average (N = 2)"}},
  "data": [
    {"compound": "CN1C(=O)CCC1c1cccnc1", "note": "(single isomer, unassigned) [Cotinine, 1-methyl-5-(3-pyridinyl)-2-pyrrolidionone]", "values": [
      {"measurement": "inhibition at 100 µM", "setting": "[1]; 10^-4 M", "value": 1.4, "unit": "%"},
      {"measurement": "inhibition at 1 µM", "setting": "[1]; 10^-6 M", "value": 1.1, "unit": "%"},
      {"measurement": "inhibition at 1 µM", "setting": "[2]", "value": 10.9, "unit": "%"},
      {"measurement": "inhibition at 100 µM", "setting": "[2]", "value": -0.6, "unit": "%"},
      {"measurement": "effectiveness in binding relative to an equal concentration of nicotine, binding expressed as percent inhibition", "setting": "[3]", "value": "about 19 times"},
      {"measurement": "inhibition at 1 µM", "setting": "[3]; [6]", "value": 15.5, "unit": "%"},
      {"measurement": "inhibition at 100 µM", "setting": "[3]; [6]", "value": 19.5, "unit": "%"},
      {"measurement": "Percent Inhibition", "setting": "[4]", "value": 38, "unit": "%"},
      {"measurement": "cardiovascular changes", "setting": "[5]; intravenous infusion over 60 minutes", "value": "no cardiovascular changes"},
      {"measurement": "subjective ratings of desire to smoke, irritability, low energy and anxiety/tension", "setting": "[5]; intravenous infusion over 60 minutes, comparable to placebo-induced changes", "value": "significant decreases"},
      {"measurement": "subjective ratings", "setting": "[5]; rapid infusion over 5 minutes", "value": "no significant changes"}
    ]}
  ]
}
